Measured values from ChEMBL document CHEMBL4673225, “Highly Selective PTK2 Proteolysis Targeting Chimeras to Probe Focal Adhesion Kinase Scaffolding Functions” (J Med Chem, 2019).
Active and inactive are the calls of the source. The calls are words filed in the database; no cut-off is given here.

How the values were obtained:
[1] = target: T1, von Hippel-Lindau disease tumor suppressor/Focal adhesion kinase 1 (Homo sapiens, UniProt Q05397+P40337); experiment: Protac activity at VHL/PTK2 in human Hep3B2.1-7 cells assessed as induction of PTK2 degradation incubated for 18 hrs by protein capillary electrophoresis method; type: cell-based; details: hep3b
[2] = target: T1, von Hippel-Lindau disease tumor suppressor/Focal adhesion kinase 1; experiment: Protac activity at VHL/PTK2 in human HuCCT-1 cells assessed as induction of PTK2 degradation incubated for 18 hrs by protein capillary electrophoresis method relative to control; type: cell-based
Target sequence in this assay (P40337 whole entry partner): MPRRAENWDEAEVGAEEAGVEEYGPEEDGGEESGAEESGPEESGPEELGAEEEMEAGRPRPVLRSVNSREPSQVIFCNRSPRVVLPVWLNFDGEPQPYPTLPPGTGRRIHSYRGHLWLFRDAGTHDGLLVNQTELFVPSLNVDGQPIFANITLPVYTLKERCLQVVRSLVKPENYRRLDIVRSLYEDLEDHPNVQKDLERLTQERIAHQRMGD
Target sequence in this assay (Q05397 2-1052 limits assumed): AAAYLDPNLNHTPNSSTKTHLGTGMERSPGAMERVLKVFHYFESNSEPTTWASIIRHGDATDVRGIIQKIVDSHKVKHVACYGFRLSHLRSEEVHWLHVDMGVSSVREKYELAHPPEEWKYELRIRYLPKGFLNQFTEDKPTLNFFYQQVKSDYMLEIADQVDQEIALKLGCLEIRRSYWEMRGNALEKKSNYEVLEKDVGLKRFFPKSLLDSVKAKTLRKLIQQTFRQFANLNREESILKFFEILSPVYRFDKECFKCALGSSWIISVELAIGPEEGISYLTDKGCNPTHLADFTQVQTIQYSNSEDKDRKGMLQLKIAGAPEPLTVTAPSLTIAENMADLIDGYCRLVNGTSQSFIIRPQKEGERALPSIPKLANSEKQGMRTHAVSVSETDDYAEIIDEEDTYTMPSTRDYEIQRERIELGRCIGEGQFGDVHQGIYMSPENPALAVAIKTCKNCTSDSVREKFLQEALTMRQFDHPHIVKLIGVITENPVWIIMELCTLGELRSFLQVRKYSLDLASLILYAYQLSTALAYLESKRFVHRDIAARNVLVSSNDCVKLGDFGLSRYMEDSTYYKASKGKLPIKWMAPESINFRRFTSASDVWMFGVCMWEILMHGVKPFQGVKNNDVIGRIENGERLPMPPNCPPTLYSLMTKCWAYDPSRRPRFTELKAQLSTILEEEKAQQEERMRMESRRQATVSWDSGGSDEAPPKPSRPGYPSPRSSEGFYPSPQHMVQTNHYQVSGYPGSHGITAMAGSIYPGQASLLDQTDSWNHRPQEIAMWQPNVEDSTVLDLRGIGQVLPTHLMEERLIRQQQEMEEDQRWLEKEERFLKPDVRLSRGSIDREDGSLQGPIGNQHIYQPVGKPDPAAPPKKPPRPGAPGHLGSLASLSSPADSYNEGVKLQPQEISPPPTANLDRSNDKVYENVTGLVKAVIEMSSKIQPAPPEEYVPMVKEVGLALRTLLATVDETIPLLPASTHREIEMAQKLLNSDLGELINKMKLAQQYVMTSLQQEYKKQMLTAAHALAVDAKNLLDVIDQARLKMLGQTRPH

[3] = target: T1, von Hippel-Lindau disease tumor suppressor/Focal adhesion kinase 1; experiment: Protac activity at VHL/PTK2 in human HLE cells assessed as induction of PTK2 degradation incubated for 18 hrs by protein capillary electrophoresis method relative to control; type: cell-based
Target sequence in this assay (P40337 whole entry partner): as the sequence (P40337 whole entry partner) above
Target sequence in this assay (Q05397 2-1052 limits assumed): as the sequence (Q05397 2-1052 limits assumed) above

[4] = target: T1, von Hippel-Lindau disease tumor suppressor/Focal adhesion kinase 1; experiment: Protac activity at VHL/PTK2 in human Hep3B2.1-7 cells assessed as induction of PTK2 degradation incubated for 18 hrs in presence of Cyclosporine by protein capillary electrophoresis method relative to control; type: cell-based; details: Hep3B
Target sequence in this assay (P40337 whole entry partner): as the sequence (P40337 whole entry partner) above
Target sequence in this assay (Q05397 2-1052 limits assumed): as the sequence (Q05397 2-1052 limits assumed) above

[5] = target: T1, von Hippel-Lindau disease tumor suppressor/Focal adhesion kinase 1; experiment: Protac activity at VHL/PTK2 in human Huh-7 cells assessed as induction of PTK2 degradation incubated for 18 hrs by protein capillary electrophoresis method; type: cell-based
[6] = target: T1, von Hippel-Lindau disease tumor suppressor/Focal adhesion kinase 1; experiment: Protac activity at VHL/PTK2 in human SK-HEP1 cells assessed as induction of PTK2 degradation incubated for 18 hrs by protein capillary electrophoresis method; type: cell-based
[7] = target: T1, von Hippel-Lindau disease tumor suppressor/Focal adhesion kinase 1; experiment: Protac activity at VHL/PTK2 in human A549 cells assessed as induction of PTK2 degradation incubated for 18 hrs by protein capillary electrophoresis method relative to control; type: cell-based
Target sequence in this assay (P40337 whole entry partner): as the sequence (P40337 whole entry partner) above
Target sequence in this assay (Q05397 2-1052 limits assumed): as the sequence (Q05397 2-1052 limits assumed) above

[8] = target: T1, von Hippel-Lindau disease tumor suppressor/Focal adhesion kinase 1; experiment: Protac activity at VHL/PTK2 in human SNU-423 cells assessed as induction of PTK2 degradation incubated for 18 hrs by protein capillary electrophoresis method; type: cell-based
[9] = target: T1, von Hippel-Lindau disease tumor suppressor/Focal adhesion kinase 1; experiment: Protac activity at VHL/PTK2 in human Hep3B2.1-7 cells assessed as time required for maximal induction of PTK2 degradation at 3 uM incubated for up to 80 hrs by protein capillary electrophoresis method; details: time hrs <=80
Target sequence in this assay (P40337 whole entry partner): as the sequence (P40337 whole entry partner) above
Target sequence in this assay (Q05397 2-1052 limits assumed): as the sequence (Q05397 2-1052 limits assumed) above

[10] = target: T1, von Hippel-Lindau disease tumor suppressor/Focal adhesion kinase 1; experiment: Protac activity at VHL/PTK2 in human Huh-7 cells assessed as induction of PTK2 degradation incubated for 18 hrs by protein capillary electrophoresis method relative to control; type: cell-based
Target sequence in this assay (P40337 whole entry partner): as the sequence (P40337 whole entry partner) above
Target sequence in this assay (Q05397 2-1052 limits assumed): as the sequence (Q05397 2-1052 limits assumed) above

[11] = target: T1, von Hippel-Lindau disease tumor suppressor/Focal adhesion kinase 1; experiment: Protac activity at VHL/PTK2 in human HepG2 cells assessed as induction of PTK2 degradation incubated for 18 hrs by protein capillary electrophoresis method; type: cell-based
[12] = target: T1, von Hippel-Lindau disease tumor suppressor/Focal adhesion kinase 1; experiment: Protac activity at VHL/PTK2 in human HuH-1 cells assessed as induction of PTK2 degradation incubated for 18 hrs by protein capillary electrophoresis method; type: cell-based
[13] = target: T1, von Hippel-Lindau disease tumor suppressor/Focal adhesion kinase 1; experiment: Protac activity at VHL/PTK2 in human A549 cells assessed as induction of PTK2 degradation incubated for 18 hrs by protein capillary electrophoresis method; type: cell-based
[14] = target: T1, von Hippel-Lindau disease tumor suppressor/Focal adhesion kinase 1; experiment: Protac activity at VHL/PTK2 in human Hep3B2.1-7 cells assessed as induction of PTK2 degradation incubated for 18 hrs by protein capillary electrophoresis method relative to control; type: cell-based; details: Hep3B
[15] = target: Focal adhesion kinase 1 (Homo sapiens, UniProt Q05397); experiment: Inhibition of PTK2 (unknown origin) at 1 uM relative to control
[16] = target: Leucine-rich repeat serine/threonine-protein kinase 2 (Homo sapiens) (UniProt Q5S007); experiment: Inhibition of LRRK2 (unknown origin) at 1 uM relative to control
[17] = target: T2, Protein cereblon/Focal adhesion kinase 1 (Homo sapiens, UniProt Q05397+Q96SW2); experiment: Protac activity at CRBN/PTK2 in human SNU-398 cells assessed as induction of PTK2 degradation incubated for 18 hrs by protein capillary electrophoresis method relative to control; type: cell-based
Target sequence in this assay (Q05397 2-1052 limits assumed): as above
Target sequence in this assay (Q96SW2 whole entry partner): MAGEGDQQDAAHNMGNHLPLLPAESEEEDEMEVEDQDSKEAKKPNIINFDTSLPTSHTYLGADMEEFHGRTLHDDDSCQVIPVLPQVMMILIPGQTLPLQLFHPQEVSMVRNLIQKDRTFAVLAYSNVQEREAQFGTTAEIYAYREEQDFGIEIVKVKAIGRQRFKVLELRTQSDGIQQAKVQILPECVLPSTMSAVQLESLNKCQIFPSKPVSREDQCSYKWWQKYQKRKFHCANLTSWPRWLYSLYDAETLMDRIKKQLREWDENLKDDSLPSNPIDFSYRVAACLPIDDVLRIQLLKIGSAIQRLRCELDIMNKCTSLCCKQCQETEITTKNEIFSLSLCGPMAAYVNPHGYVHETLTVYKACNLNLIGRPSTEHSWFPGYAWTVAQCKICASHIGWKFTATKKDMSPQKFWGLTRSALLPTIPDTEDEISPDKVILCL

[18] = target: T2, Protein cereblon/Focal adhesion kinase 1; experiment: Protac activity at CRBN/PTK2 in human HepG2 cells assessed as induction of PTK2 degradation incubated for 18 hrs by protein capillary electrophoresis method; type: cell-based
[19] = target: T2, Protein cereblon/Focal adhesion kinase 1; experiment: Protac activity at CRBN/PTK2 in human SNU-387 cells assessed as induction of PTK2 degradation incubated for 18 hrs by protein capillary electrophoresis method relative to control; type: cell-based
Target sequence in this assay (Q05397 2-1052 limits assumed): as the sequence (Q05397 2-1052 limits assumed) above
Target sequence in this assay (Q96SW2 whole entry partner): as the sequence (Q96SW2 whole entry partner) above

[20] = target: T2, Protein cereblon/Focal adhesion kinase 1; experiment: Protac activity at CRBN/PTK2 in human Huh-7 cells assessed as induction of PTK2 degradation incubated for 18 hrs by protein capillary electrophoresis method relative to control; type: cell-based
Target sequence in this assay (Q05397 2-1052 limits assumed): as the sequence (Q05397 2-1052 limits assumed) above
Target sequence in this assay (Q96SW2 whole entry partner): as the sequence (Q96SW2 whole entry partner) above

[21] = target: T2, Protein cereblon/Focal adhesion kinase 1; experiment: Protac activity at CRBN/PTK2 in human SNU-398 cells assessed as induction of PTK2 degradation incubated for 18 hrs by protein capillary electrophoresis method; type: cell-based
[22] = target: T2, Protein cereblon/Focal adhesion kinase 1; experiment: Protac activity at CRBN/PTK2 in human Hep3B2.1-7 cells assessed as induction of PTK2 degradation incubated for 18 hrs in presence of Cyclosporine A by protein capillary electrophoresis method relative to control; type: cell-based; details: Hep3B
Target sequence in this assay (Q05397 2-1052 limits assumed): as the sequence (Q05397 2-1052 limits assumed) above
Target sequence in this assay (Q96SW2 whole entry partner): as the sequence (Q96SW2 whole entry partner) above

[23] = target: T2, Protein cereblon/Focal adhesion kinase 1; experiment: Protac activity at CRBN/PTK2 in human A549 cells assessed as induction of PTK2 degradation incubated for 18 hrs by protein capillary electrophoresis method; type: cell-based
[24] = target: T2, Protein cereblon/Focal adhesion kinase 1; experiment: Protac activity at CRBN/PTK2 in human HepG2 cells assessed as induction of PTK2 degradation incubated for 18 hrs by protein capillary electrophoresis method relative to control; type: cell-based
Target sequence in this assay (Q05397 2-1052 limits assumed): as the sequence (Q05397 2-1052 limits assumed) above
Target sequence in this assay (Q96SW2 whole entry partner): as the sequence (Q96SW2 whole entry partner) above

[25] = target: T2, Protein cereblon/Focal adhesion kinase 1; experiment: Protac activity at CRBN/PTK2 in human A549 cells assessed as induction of PTK2 degradation incubated for 18 hrs by protein capillary electrophoresis method relative to control; type: cell-based
Target sequence in this assay (Q05397 2-1052 limits assumed): as the sequence (Q05397 2-1052 limits assumed) above
Target sequence in this assay (Q96SW2 whole entry partner): as the sequence (Q96SW2 whole entry partner) above

[26] = target: T2, Protein cereblon/Focal adhesion kinase 1; experiment: Protac activity at CRBN/PTK2 in human Hep3B2.1-7 cells assessed as time required for maximal induction of PTK2 degradation at 3 uM incubated for up to 80 hrs by protein capillary electrophoresis method; details: time hrs <=80
[27] = target: T2, Protein cereblon/Focal adhesion kinase 1; experiment: Protac activity at CRBN/PTK2 in human SK-HEP1 cells assessed as induction of PTK2 degradation incubated for 18 hrs by protein capillary electrophoresis method relative to control; type: cell-based
[28] = target: T2, Protein cereblon/Focal adhesion kinase 1; experiment: Protac activity at CRBN/PTK2 in human Hep3B2.1-7 cells assessed as induction of PTK2 degradation incubated for 18 hrs in presence of Cyclosporine A by protein capillary electrophoresis method; type: cell-based; details: hep3b
[29] = target: T2, Protein cereblon/Focal adhesion kinase 1; experiment: Protac activity at CRBN/PTK2 in human A549 cells assessed as induction of PTK2 degradation at 1 to 100000 nM incubated for 18 hrs in presence of NEDD8 inhibitor […] by protein capillary electrophoresis method; type: cell-based; details: dose 1-100000 nM
[30] = target: T2, Protein cereblon/Focal adhesion kinase 1; experiment: Protac activity at CRBN/PTK2 in human SNU-423 cells assessed as induction of PTK2 degradation incubated for 18 hrs by protein capillary electrophoresis method; type: cell-based
[31] = target: T2, Protein cereblon/Focal adhesion kinase 1; experiment: Protac activity at CRBN/PTK2 in human HuCCT-1 cells assessed as induction of PTK2 degradation incubated for 18 hrs by protein capillary electrophoresis method; type: cell-based
[32] = target: T2, Protein cereblon/Focal adhesion kinase 1; experiment: Protac activity at CRBN/PTK2 in human HuCCT-1 cells assessed as induction of PTK2 degradation incubated for 18 hrs by protein capillary electrophoresis method relative to control; type: cell-based
[33] = target: T2, Protein cereblon/Focal adhesion kinase 1; experiment: Protac activity at CRBN/PTK2 in human HuH-1 cells assessed as induction of PTK2 degradation incubated for 18 hrs by protein capillary electrophoresis method relative to control; type: cell-based

Focal adhesion kinase 1, sequence (Q05397 2-1052 limits assumed): as the sequence (Q05397 2-1052 limits assumed) above

Compound: COc1cc(C(=O)NCCOCCOCCOCC(=O)N[C@H](C(=O)N2C[C@H](O)C[C@H]2C(=O)NCc2ccc(-c3scnc3C)cc2)C(C)(C)C)ccc1Nc1ncc(C(F)(F)F)c(Oc2cccc3c2C(=O)CC3)n1
- pDC50 [1]: 6.2
- Emax [2]: 86%
- Emax [3]: 85%
- Emax [4]: 88%
- pDC50 [5]: 7
- pDC50 [6]: 6.9
- Emax [7]: 80%
- pDC50 [8]: 7.1
- TIME [9]: 20 h
- Emax [10]: 79%
- pDC50 [11]: 6.2
- pDC50 [12]: 7.1
- pDC50 [13]: 6.7
- Emax [14]: 59%
- inhibition [15]: > 90%
- inhibition [16]: > 90%

Compound: COc1cc(C(=O)NCCOCCOCCOCCC(=O)Nc2cccc3c2C(=O)N(C2CCC(=O)NC2=O)C3=O)ccc1Nc1ncc(C(F)(F)F)c(Oc2cccc3c2C(=O)CC3)n1 (stereo not drawn)
- Emax [17]: 95%
- pDC50 [18]: 7.5
- Emax [19]: 90%
- Emax [20]: 93%
- pDC50 [21]: 8.5
- Emax [22]: 94%
- pDC50 [23]: 7.6
- Emax [24]: 89%
- Emax [25]: 95%
- TIME [26]: 5 h
- Emax [27]: 89%
- pDC50 [28]: 9
- Activity [29]: inactive
- pDC50 [30]: 7.9
- pDC50 [31]: 7.9
- Emax [32]: 90%
- Emax [33]: 50%
